# Laboratory results from patent US12655116B2, “Substituted isophthalic acid diamides” (Bayer Aktiengesellschaft, priority 2020, dated 2026).
# Tests used:
# VERPE [1] = assay: Post-emergence herbicidal action against VERPE; type: in vivo, Veronica persica
# Summary of the method: (§1)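 Spray, one-leaf stage: WP or EC compound in water, 600–800 l/ha, 0.2% wetting agent. Plants held about 3 weeks in the greenhouse, then visually rated in percent of kill compared with untreated controls.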
# ABUTH [2] = assay: Post-emergence herbicidal action against ABUTH; type: in vivo, Abutilon theophrasti; conditions: visual assessment about 3 weeks after treatment vs untreated controls
# Summary of the method: as §1
# SETVI [3] = assay: Pre-emergence herbicidal action against SETVI; type: in vivo, Setaria viridis
# Summary of the method: (§2)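 Pre-emergence soil-surface spray of formulated compound (WP or EC; 600 to 800 l/ha; 0.2% wetting agent) over seeds sown in sandy loam. After 3 weeks under greenhouse conditions, damage is estimated visually in percent against untreated plants.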
# AMARE [4] = assay: Post-emergence herbicidal action against AMARE; type: in vivo, Amaranthus retroflexus; conditions: 20 g/ha, visual assessment about 3 weeks after treatment, 100% = plants have died, 0% = like control plants
# Summary of the method: as §1
# ALOMY [5] = assay: Post-emergence herbicidal action against ALOMY; type: in vivo, Alopecurus myosuroides; conditions: dosage 20 g/ha, visual assessment about 3 weeks after treatment vs untreated controls
# Summary of the method: as §1
# MATIN [6] = assay: Post-emergence herbicidal action against MATIN; type: in vivo, Matricaria inodora; conditions: dosage 20 g/ha
# Summary of the method: as §1
# ALOMY [7] = assay: Pre-emergence herbicidal action against ALOMY; type: in vivo, Alopecurus myosuroides
# Summary of the method: as §2
# VIOTR [8] = assay: Post-emergence herbicidal action against VIOTR; type: in vivo, Viola tricolor
# Summary of the method: as §1
# SETVI [9] = assay: Post-emergence herbicidal action against SETVI; type: in vivo, Setaria viridis
# Summary of the method: as §1
# VERPE [10] = assay: Pre-emergence herbicidal action against VERPE; type: in vivo, Veronica persica
# Summary of the method: as §2
# PHBPU [11] = assay: Pre-emergence herbicidal action against PHBPU; type: in vivo, Pharbitis purpurea; conditions: dosage 80 g/ha
# Summary of the method: as §2
# MATIN [12] = assay: Pre-emergence herbicidal action against MATIN; type: in vivo, Matricaria inodora
# Summary of the method: as §2
# POLCO = assay: Pre-emergence herbicidal action against POLCO; type: in vivo, Polygonum convolvulus
# Summary of the method: as §2
# ECHCG [13] = assay: Pre-emergence herbicidal action against ECHCG; type: in vivo, Echinochloa crus-galli; conditions: 80 g/ha
# Summary of the method: as §2
# VIOTR [14] = assay: Pre-emergence herbicidal action against VIOTR; type: in vivo, Viola tricolor
# Summary of the method: as §2
# AMARE [15] = assay: Pre-emergence herbicidal action against AMARE; type: in vivo, Amaranthus retroflexus
# Summary of the method: as §2
# ABUTH [16] = assay: Pre-emergence herbicidal action against ABUTH; type: in vivo, Abutilon theophrasti
# Summary of the method: as §2
# AVEFA = assay: Pre-emergence herbicidal action against AVEFA; type: in vivo, Avena fatua
# Summary of the method: as §2
# ECHCG [17] = assay: Post-emergence herbicidal action against ECHCG; type: in vivo, Echinochloa crus-galli
# Summary of the method: as §1
# PHBPU [18] = assay: Post-emergence herbicidal action against PHBPU; type: in vivo, Pharbitis purpurea
# Summary of the method: as §1
# [19] = Setaria viridis, 504 h, dosage 20 g/ha
# [20] = 20 g/ha, scored visually after 3 weeks, 100% = plants have died, 0% = like control plants
# [21] = 80 g/ha, scored visually after 3 weeks vs untreated controls (100% = plants have died, 0% = like control plants)
smiles,measurement,setting,value
CSc1c(C(=O)Nc2nnnn2C)ccc(C(F)F)c1C(=O)NC1CC1 [Example 1-89],pest or weed control at 5 g/ha,"VERPE [1]; Veronica persica, 504 h, 5 g/ha",90%
same,pest or weed control at 20 g/ha,"VERPE [1]; Veronica persica, 504 h, 20 g/ha",90%
same,pest or weed control at 5 g/ha,"ABUTH [2]; Abutilon theophrasti, 504 h, dosage 5 g/ha",90%
same,pest or weed control at 20 g/ha,"ABUTH [2]; Abutilon theophrasti, 504 h, dosage 20 g/ha",90%
same,pest or weed control at 20 g/ha,SETVI [3]; [19],90%
same,pest or weed control at 80 g/ha,"SETVI [3]; Setaria viridis, 504 h, dosage 80 g/ha",100%
same,pest or weed control at 20 g/ha,"AMARE [4]; Amaranthus retroflexus, 504 h",100%
same,pest or weed control at 20 g/ha,"ALOMY [5]; Alopecurus myosuroides, 504 h",90%
same,pest or weed control at 20 g/ha,"MATIN [6]; Tripleurospermum inodorum, 504 h",80%
same,pest or weed control at 80 g/ha,"ALOMY [7]; Alopecurus myosuroides, 504 h, 80 g/ha, pre-emergence, scored visually after 3 weeks vs untreated controls (100% = plants have died, 0% = like control plants)",90%
same,pest or weed control at 5 g/ha,"VIOTR [8]; Viola tricolor, 504 h, 5 g/ha",90%
same,pest or weed control at 20 g/ha,"VIOTR [8]; Viola tricolor, 504 h, 20 g/ha",90%
same,pest or weed control at 5 g/ha,"SETVI [9]; Setaria viridis, 504 h, dosage 5 g/ha",90%
same,pest or weed control at 20 g/ha,SETVI [9]; [19],90%
same,pest or weed control at 80 g/ha,"VERPE [10]; Veronica persica, 504 h, dosage 80 g/ha",90%
same,pest or weed control at 80 g/ha,"PHBPU [11]; Ipomoea purpurea, 504 h",80%
same,pest or weed control at 20 g/ha,"MATIN [12]; Tripleurospermum inodorum, 504 h, dosage 20 g/ha",90%
same,pest or weed control at 80 g/ha,"MATIN [12]; Tripleurospermum inodorum, 504 h, dosage 80 g/ha",100%
same,pest or weed control at 80 g/ha,"POLCO; Fallopia convolvulus, 504 h, dosage 80 g/ha",80%
same,pest or weed control at 80 g/ha,"ECHCG [13]; Echinochloa crus-galli, 504 h",100%
same,pest or weed control at 80 g/ha,"VIOTR [14]; Viola tricolor, 504 h, dosage 80 g/ha",100%
same,pest or weed control at 20 g/ha,"AMARE [15]; Amaranthus retroflexus, 504 h, 20 g/ha, scored visually after 3 weeks vs untreated controls, 100% = plants have died, 0% = like control plants",100%
same,pest or weed control at 80 g/ha,"AMARE [15]; Amaranthus retroflexus, 504 h, 80 g/ha, scored visually after 3 weeks vs untreated controls, 100% = plants have died, 0% = like control plants",100%
same,pest or weed control at 80 g/ha,"ABUTH [16]; Abutilon theophrasti, 504 h, 80 g/ha, scored visually after 3 weeks vs untreated controls (100% = plants have died, 0% = like control plants)",100%
same,pest or weed control at 20 g/ha,"ABUTH [16]; Abutilon theophrasti, 504 h, dosage 20 g/ha, scored visually after 3 weeks vs untreated controls, 100% = plants have died, 0% = like control plants, read-out: Pre-emergence action against ABUTH (herbicidal activity in percent)",90%
same,pest or weed control at 80 g/ha,"AVEFA; Avena fatua, 504 h, 80 g/ha, pre-emergence",90%
CCc1c(C(=O)Nc2nnnn2C)ccc(C(F)(F)F)c1C(=O)NCC1CC1 [Example 1-274],Post-emergence action against VERPE in %,VERPE [1]; 20 g/ha,80%
same,Post-emergence action against ABUTH in %,ABUTH [2]; dosage 20 g/ha,80%
same,Post-emergence action against ECHCG in %,ECHCG [17]; dosage 5 g/ha,80%
same,Post-emergence action against ECHCG in %,ECHCG [17]; dosage 20 g/ha,90%
same,Pre-emergence action against SETVI in %,SETVI [3]; dosage 80 g/ha,100%
same,Post-emergence action at 20 g/ha against AMARE in %,AMARE [4],100%
same,Post-emergence action against PHBPU in %,PHBPU [18]; dosage 5 g/ha,80%
same,Post-emergence action against PHBPU in %,PHBPU [18]; dosage 20 g/ha,90%
same,Post-emergence action against ALOMY in %,ALOMY [5],80%
same,Post-emergence action against MATIN in %,MATIN [6],80%
same,Pre-emergence action against ALOMY,ALOMY [7]; [20],80%
same,Pre-emergence action against ALOMY (herbicidal activity),"ALOMY [7]; 80 g/ha, pre-emergence, scored visually after 3 weeks vs untreated controls (100% = plants have died, 0% = like control plants)",90%
same,Post-emergence action against VIOTR in %,VIOTR [8]; 20 g/ha,80%
same,Post-emergence action against SETVI in %,SETVI [9]; dosage 20 g/ha,90%
same,Pre-emergence action against VERPE in %,VERPE [10]; dosage 20 g/ha,90%
same,Pre-emergence action against VERPE in %,VERPE [10]; dosage 80 g/ha,90%
same,Pre-emergence action against PHBPU in %,PHBPU [11],90%
same,Pre-emergence action against MATIN in %,MATIN [12]; dosage 20 g/ha,100%
same,Pre-emergence action against MATIN in %,MATIN [12]; dosage 80 g/ha,100%
same,Pre-emergence action against POLCO in %,POLCO; dosage 20 g/ha,80%
same,Pre-emergence action against POLCO in %,POLCO; dosage 80 g/ha,90%
same,Pre-emergence action against ECHCG in %,ECHCG [13],100%
same,Pre-emergence action against VIOTR in %,VIOTR [14]; dosage 20 g/ha,90%
same,Pre-emergence action against VIOTR in %,VIOTR [14]; dosage 80 g/ha,90%
same,Pre-emergence action against AMARE in %,"AMARE [15]; 20 g/ha, scored visually after 3 weeks vs untreated controls, 100% = plants have died, 0% = like control plants",100%
same,Pre-emergence action against AMARE in %,AMARE [15]; [21],100%
same,Pre-emergence action against ABUTH (herbicidal activity),ABUTH [16]; [21],100%
same,Pre-emergence action against ABUTH (herbicidal activity in percent),"ABUTH [16]; dosage 20 g/ha, scored visually after 3 weeks vs untreated controls, 100% = plants have died, 0% = like control plants",100%
same,Pre-emergence action against AVEFA,AVEFA; [20],80%
same,Pre-emergence action against AVEFA in %,"AVEFA; 80 g/ha, pre-emergence",90%
